Test results from ChEMBL document CHEMBL1201862, “PubChem BioAssay data set” (2004).
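The compound was tested at five concentrations on cells cultured in 96-well plates, with a 48-hour exposure period. Here, GI50 denotes the concentration required for 50% inhibition of growth.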 Calls of active or inactive are those of the source. No stated cut-off is given here; in the data, active = GI50 up to about 1.1 µM and inactive = higher.

Experiments:
Assay in all cases: NCI-60 cell line screen, 48 h
[1] = system: 786-0
[2] = system: NCI/ADR-RES
[3] = system: NCI-H522
[4] = system: SK-MEL-28
[5] = system: MDA-MB-231
[6] = system: SR
[7] = system: MOLT-4
[8] = system: LOX IMVI
[9] = system: MDA-MB-435
[10] = system: U-251
[11] = system: A498
[12] = system: HCT-116
[13] = system: HT-29
[14] = system: NCI-H460
[15] = system: HOP-92
[16] = system: M14
[17] = system: ACHN
[18] = system: SF-268
[19] = system: KM12
[20] = system: K562

SMILES	GI50 [1]	GI50 [2]	GI50 [3]	GI50 [4]	GI50 [5]	GI50 [6]	GI50 [7]	GI50 [8]	GI50 [9]	GI50 [10]	GI50 [11]	GI50 [12]	GI50 [13]	GI50 [14]	GI50 [15]	GI50 [16]	GI50 [17]	GI50 [18]	GI50 [19]	GI50 [20]
C/C(=N\Nc1nc2ccccc2[nH]1)c1cc2ccccc2cn1	0.048 µM (active)	0.0284 µM (active)	< 0.0165 µM (active)	0.0853 µM (active)	0.0261 µM (active)	0.0281 µM (active)	0.0117 µM (active)	0.051 µM (active)	0.182 µM (active)	0.0318 µM (active)	0.0993 µM (active)	0.0158 µM (active)	0.0104 µM (active)	0.0661 µM (active)	0.0755 µM (active)	< 0.01 µM (active)	< 0.0139 µM (active)	0.0399 µM (active)	0.0741 µM (active)	0.0159 µM (active)
COc1cccc2c1NC(=O)Cc1c-2[nH]c2ccccc12	> 100 µM (inactive)	82.2 µM (inactive)	49.9 µM (inactive)	30.8 µM (inactive)	> 100 µM (inactive)	> 100 µM (inactive)	13.6 µM (inactive)	> 100 µM (inactive)	29.1 µM (inactive)	> 100 µM (inactive)	> 100 µM (inactive)	–	47.6 µM (inactive)	35.1 µM (inactive)	> 100 µM (inactive)	> 100 µM (inactive)	> 100 µM (inactive)	> 100 µM (inactive)	46.9 µM (inactive)	53.1 µM (inactive)
Oc1ccc(CCc2cc(O)cc(O)c2)cc1 [DIHYDRORESVERATROL]	> 100 µM (inactive)	> 100 µM (inactive)	> 100 µM (inactive)	> 100 µM (inactive)	23.7 µM (inactive)	> 100 µM (inactive)	90.2 µM (inactive)	–	> 100 µM (inactive)	> 100 µM (inactive)	> 100 µM (inactive)	> 100 µM (inactive)	> 100 µM (inactive)	> 100 µM (inactive)	> 100 µM (inactive)	> 100 µM (inactive)	79.4 µM (inactive)	> 100 µM (inactive)	> 100 µM (inactive)	80.7 µM (inactive)
FC(F)(Sc1ncc[nH]1)c1nc2ccccc2o1	> 100 µM (inactive)	> 100 µM (inactive)	> 100 µM (inactive)	> 100 µM (inactive)	> 100 µM (inactive)	> 100 µM (inactive)	> 100 µM (inactive)	–	> 100 µM (inactive)	> 100 µM (inactive)	> 100 µM (inactive)	> 100 µM (inactive)	> 100 µM (inactive)	> 100 µM (inactive)	> 100 µM (inactive)	> 100 µM (inactive)	> 100 µM (inactive)	> 100 µM (inactive)	> 100 µM (inactive)	> 100 µM (inactive)
CCCCC(=O)Nc1ccc2cc(C(=O)OC)c(ON3C(=O)c4ccccc4C3=O)nc2n1	17 µM (inactive)	32.6 µM (inactive)	23.3 µM (inactive)	23.2 µM (inactive)	38.9 µM (inactive)	36.4 µM (inactive)	28.9 µM (inactive)	31 µM (inactive)	37.6 µM (inactive)	26.5 µM (inactive)	27.4 µM (inactive)	15.7 µM (inactive)	–	15.3 µM (inactive)	26.4 µM (inactive)	17.9 µM (inactive)	28.1 µM (inactive)	29.1 µM (inactive)	30.3 µM (inactive)	33.2 µM (inactive)
CN(C)NC(=S)Nc1ccccc1Br	> 100 µM (inactive)	> 100 µM (inactive)	> 100 µM (inactive)	> 100 µM (inactive)	> 100 µM (inactive)	> 100 µM (inactive)	> 100 µM (inactive)	> 100 µM (inactive)	> 100 µM (inactive)	> 100 µM (inactive)	> 100 µM (inactive)	> 100 µM (inactive)	> 100 µM (inactive)	> 100 µM (inactive)	> 100 µM (inactive)	> 100 µM (inactive)	> 100 µM (inactive)	–	> 100 µM (inactive)	> 100 µM (inactive)
COc1ccc2c3c1O[C@H]1C(O)CCC4(O)[C@@H](C2)NCC[C@]314 (some centres undefined)	> 100 µM (inactive)	> 100 µM (inactive)	> 100 µM (inactive)	> 100 µM (inactive)	> 100 µM (inactive)	> 100 µM (inactive)	> 100 µM (inactive)	> 100 µM (inactive)	> 100 µM (inactive)	> 100 µM (inactive)	> 100 µM (inactive)	> 100 µM (inactive)	> 100 µM (inactive)	–	> 100 µM (inactive)	> 100 µM (inactive)	> 100 µM (inactive)	> 100 µM (inactive)	> 100 µM (inactive)	> 100 µM (inactive)
